Data set [1] in a line: Storage of acidic, concentrated permeate in a fridge; GAA content determined by HPLC. Particulars: for GAA content: acidic and concentrated permeate stored in a fridge. It counts as physicochemical. Here is the method: After fermentation and inactivation of the fermentation broth, the pH of the broth was adjusted to 1.5 using 75% w/w of H2SO4 at a temperature of 50° C. The biomass was removed by means of ultrafiltration and the temperature of the broth was kept constant at 50° C. The resulting permeate was concentrated at 80° C. and used for the crystallization step. The permeate fed to the crystallization was adjusted to pH 8 using 25% w/w of NH4OH. The formed crystals were separated by means of a suction filter and dried.
A part of the acidic and concentrated permeate was stored aside in a fridge over a period of ca. 2 weeks. The GAA content in said permeate was regularly determined by means of HPLC.
Description of the HPLC Method:
• 2.3 g ammonium dihydrogenphosphate (NH4H2PO4) and • 2.6 g di-ammonium hydrogenphosphate ((NH4)2HPO4) • dissolved in 2 L purified water
2.3 g ammonium dihydrogenphosphate (NH4H2PO4) and • 2.6 g di-ammonium hydrogenphosphate ((NH4)2HPO4) • dissolved in 1 L purified water and mixed with 1 L acetonitrile
The following gradient was used in the HPLC method: […]

For data set [2] the following is noted: aqueous medium; cited from earlier work.

Structures are written as SMILES.

The values below come from US20260226001A1, “PROCESS FOR PREPARING AN N-GUANYLAMINO ACID” (Evonik Operations GmbH, priority 2023, published 2026).

Consider `N=C(N)NCC(=O)O` [GAA, guanidinoacetic acid], for which the GAA content in data set [1] (1 Apr. 2022) was determined as 120.9 g/kg; in data set [1] (7 Apr. 2022) it was 118.5 g/kg; in data set [1] (12 Apr. 2022), 119.9 g/kg; in data set [1] (13 Apr. 2022), 119.3 g/kg. In addition, the “degradation of the GAA in the acidic and concentrated permeate” value in data set [1] (fridge, over the 2-week period, HPLC) was “no degradation”. Further, the pKa result in data set [2] is “approximately 2.9”. In addition, the pKb result in data set [2] was “approximately 10.91”.
